In US8993624B2, “Method of preventing and treating inflammatory diseases and disorders with abscisic acid” (Virginia Tech Intellectual Properties, Inc., priority 2010, dated 2015):

What was measured:
PPAR γ [1] = assay: LANCL2 siRNA and PPAR γ co-transfections in RAW macrophages; assay type: cell-based
Procedure: LANCL2 siRNA and PPAR γ co-transfections—RAW macrophages were transfected with the PPAR γ plasmid as described in the preceding section with or without LANCL2 siRNA. Specifically, RAW macrophages were then co-transfected with 0.2-μg plasmid DNA and 0.25 μL LANCL2 siRNA (20 μM) per well using the Lipofectamine 2000 transfection reagent (Invitrogen). […] After incubation, RAW macrophages were harvested in reporter lysis reagent and luciferase activity was determined as described above. LANCL2 mRNA was measured by RT-PCR in control wells to assess the efficiency of knockdown.

[2] = system: CD3/CD28-stimulated splenocytes; assay: Intracellular cAMP and mRNA in CD3/CD28-stimulated splenocytes; assay type: cell-based, mouse
Procedure: Intracellular cAMP in CD3/CD28-stimulated splenocytes and LPS-stimulated macrophages—Spleens were excised from C57BL6/J mice under sterile conditions. Cells were released by disrupting the tissue between frosted glass slides and red blood cells were lysed with erythrocyte lysis buffer. Splenocytes were enumerated with a Coulter Counter (Beckman Coulter, Fullerton, Calif.) and seeded in cRPMI at 1×10^6/ml onto 24-well plates pre-coated with anti-mouse CD3 (5 μg/mL; BD Pharmingen) and anti-mouse CD28 (1 μg/mL; BD Pharmingen). […] For intracellular assessment of cAMP, cells were harvested into 0.1 M HCl and the lysates were collected. The cAMP concentration of the lysates was determined using an EIA kit (Assay Designs, Ann Arbor, Mich.).

[3] = system: LPS-induced systemic inflammation; assay: LPS challenge in mice, immune cell subsets by flow cytometry; assay type: in vivo, mouse
Procedure: Flow Cytometry—Mesenteric lymph nodes (MLN) and spleen-derived cells (2×10^5 cells/well) or whole blood (10 μL/well) were seeded onto 96-well plates, centrifuged at 4° C. at 3000 rpm for 4 minutes, and washed with PBS containing 5% fetal bovine serum and 0.09% sodium azide (FACS buffer). To assess differential monocyte/macrophage subsets, the cells were incubated in the dark at 4° C. for 20 minutes in FcBlock (20 μg/ml; BD Pharmingen), and then for an additional 20 minutes with fluorochrome-conjugated primary antibodies anti-F4/80-PE-Cy5 (5 μg/mL, eBioscience) and anti-CD 11b-Alexa Fluor 700 (2 μg/mL, eBioscience), and anti-TLR-4-PE-Cy7 (2 μg/mL, eBioscience). For lymphocyte assessment, cells were incubated with anti-CD4-FITC (2 μg/mL; BD Pharmingen), anti-CD8-PerCp-Cy5.5 (2 μg/mL, eBioscience), CD3 PE-Cy5 (2 μg/mL; BD Pharmingen), anti-TLR-4 PE-Cy7, and anti-IL17A-PE (2 μg/mL, eBioscience) as previously shown (23). Flow results were computed with a BD LSR II flow cytometer and data analyses was performed with FACS Diva software (BD).

NF-κB = NF-κB activity in spleens of LPS-challenged mice; assay type: in vivo, mouse; details: spleen
Procedure: (§1) NF-κB and NFAT activities—Spleens were diced into smaller pieces in lysis buffer containing dithiothreitol and a protease inhibitor cocktail and then further disrupted using a dounce ground glass homogenizer at 4° C. Nuclear extraction for tissue homogenate and BMM was performed using the Nuclear Extract kit (Active Motif, Carlsbad, Calif.) per the manufacturer's instructions. The extracts were used to perform a Bradford-based assay for quantifying the protein concentrations and stored at −80° C. NF-κB and NFATc1 activities were measured as previously described (13) by using the Trans-AM™ NF-κB p65 and the Trans-AM™ NFATc1 ELISA-based assays (Active Motif), respectively per the manufacturer's instructions.

NF-κB p65 = NF-κB p65 activity in BMM stimulated with LPS/IFN-γ; assay type: cell-based, mouse
Procedure: Bone Marrow-derived Macrophage (BMM) Cultures—Bone marrow cells from PPAR γ flfl; MMTV-Cre− (flfl-Cre−) and flfl-Cre+ mice were cultured in DMEM with M-CSF (50 ng/ml) for 7 days. Fresh media with M-CSF was added on day 3. […] Following differentiation macrophages were directly stimulated with LPS (100 ng/ml) as previously described for 12 hours (21). ABA was added to macrophage cultures at a concentration of 2.5 μM. […]
as §1, with “Nuclear extraction for tissue homogenate and BMM was performed using the Nuclear Extract kit (Active Motif, Carlsbad, Calif.) per the manufacturer's instructions.” left out

RXR = RXR reporter activity (data not shown); assay type: cell-based
RAR = RAR reporter activity (data not shown); assay type: cell-based
lymphocytes = assay: IL-2 production and lymphocyte proliferation (unpublished data); assay type: cell-based
Influenza A/Udorn (H3N2) = assay: Dietary (prophylactic) ABA, influenza virus challenge in mice; assay type: in vivo, mouse; details: for survival: ABA diet
A/California/09 (H1N1) = assay: Post-exposure ABA by gavage, A/California/09 (H1N1) challenge in mice; assay type: in vivo, mouse
PPAR γ [4] = target: T1, PPAR γ (Mus musculus, UniProt P37238); details: racemic mixture, 3T3-L1 preadipocytes; cited from earlier work
T1 construct: host or cells: 3T3-L1 preadipocytes
T1 sequence (P37238 1-505): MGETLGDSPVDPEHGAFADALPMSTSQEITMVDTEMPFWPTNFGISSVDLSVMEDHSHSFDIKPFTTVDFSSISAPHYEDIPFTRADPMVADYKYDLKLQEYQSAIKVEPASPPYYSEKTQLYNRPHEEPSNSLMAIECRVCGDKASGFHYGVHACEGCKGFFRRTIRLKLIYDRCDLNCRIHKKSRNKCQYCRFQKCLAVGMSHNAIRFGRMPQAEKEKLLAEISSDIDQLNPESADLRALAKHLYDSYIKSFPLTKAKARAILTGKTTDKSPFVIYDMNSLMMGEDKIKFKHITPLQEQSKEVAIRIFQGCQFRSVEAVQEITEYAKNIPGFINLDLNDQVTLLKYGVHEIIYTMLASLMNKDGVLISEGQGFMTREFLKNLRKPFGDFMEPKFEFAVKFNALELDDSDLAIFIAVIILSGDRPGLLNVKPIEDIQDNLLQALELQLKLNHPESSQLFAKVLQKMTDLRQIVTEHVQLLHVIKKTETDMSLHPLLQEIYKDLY

Compound: CC1=CC(=O)CC(C)(C)C1(O)/C=C/C(C)=C\C(=O)O (racemic) [ABA, abscisic acid]
- PPAR γ reporter activity (PPAR γ [1]; normal LANCL2, ABA 1.25-10 μM, Ros 1 or 10 μM, vs untreated cells): significantly elevated PPAR γ
- PPAR γ reporter activity (PPAR γ [1]; with LANCL2 siRNA): neither ABA nor Ros significantly affected PPAR γ activity
- LANCL2 mRNA expression [2]: not LANCL2 mRNA expression
- PPAR γ expression [2]: upregulation of PPAR γ
- intracellular cAMP ([2]; ABA 10 μM): significantly increased intracellular cAMP
- phosphodiesterase activity ([2]; data not shown): without affecting phosphodiesterase activity
- TLR4 expression levels by macrophages ([3]; LPS-treated PPAR γ-expressing mice): reduced
- percentages of blood monocytes (F4/80+CD11b+) ([3]; LPS-treated immune cell-specific PPAR γ null mice, diet 36 days): significantly increased
- TLR4 expression in CD8+ T cells ([3]; non-LPS treated mice): significantly reduced
- TLR4 expression in MLN F4/80+CD11b+ macrophages ([3]; supplemented diet 36 days): significantly suppressed
- NF-κB activity (NF-κB): did not affect
- NF-κB p65 activity in nuclear extracts (NF-κB p65; 2.5 μM ABA, PPAR γ-expressing primary macrophages): significantly decreased
- NF-κB activity (NF-κB p65; macrophages with loss of PPAR γ): further activation induced by ABA
- RXR reporter activity (RXR): does not increase
- RAR reporter activity (RAR): does not increase
- IL-2 production (lymphocytes): increases
- lymphocyte proliferation (lymphocytes): increases
- survival (Influenza A/Udorn (H3N2); WT mice): 100%
- maximum loss of original body weight (Influenza A/Udorn (H3N2); WT mice, ABA diet 100 mg/kg of diet): 5%
- lung MCP-1 mRNA expression (Influenza A/Udorn (H3N2); WT mice, vs control diet): consistently lower levels of MCP-1 mRNA expression
- extent of vascular infiltrates (Influenza A/Udorn (H3N2); WT, vs control diet): diminished
- infiltration of respiratory airways (Influenza A/Udorn (H3N2); WT, vs control diet): diminished
- lung MCP-1 mRNA expression (Influenza A/Udorn (H3N2); cKO mice): failed to down-regulate MCP-1 expression
- beneficial effect on lung inflammatory cell infiltration (Influenza A/Udorn (H3N2); cKO mice fed ABA): abrogated
- survival (Influenza A/Udorn (H3N2); cKO mice): 71.2%
- viral loads in the lungs (Influenza A/Udorn (H3N2); day 4 post-infection): no significant differences
- expression of PPAR γ in BAL-derived cells (Influenza A/Udorn (H3N2); healthy non-infected WT mice, 36 days): significantly increased
- epithelial recovery (Influenza A/Udorn (H3N2); lung histopathology): neither did it have any effect
- extent of epithelial necrosis (Influenza A/Udorn (H3N2); lung histopathology, days 2, 4, 7): did not affect
- weight loss (Influenza A/Udorn (H3N2); mice with defective PPAR γ expression in immune and epithelial cells (cKO)): behaved similar to WT mice fed the control diet
- weight loss and recovery (A/California/09 (H1N1); 100 mg/kg oral gavage once daily 10 days, from 4 hours post-infection): suppressed weight loss for both strains and accelerated recovery
- glucose tolerance (A/California/09 (H1N1); lean and obese mice infected with H1N1): ameliorated glucose tolerance
- glucose tolerance (A/California/09 (H1N1); uninfected control mice): ameliorated glucose tolerance
- MCP-1 expression in white adipose tissue (A/California/09 (H1N1); uninfected mice): down-regulated MCP-1 expression
- PPAR γ activation (PPAR γ [4]): activates PPAR γ
